According to patent US20250353830A1, “NOVEL COMPOUNDS” (Hoffmann-La Roche Inc., priority 2022, published 2025):

Assays:
NLRP3 [1] = biological target: T1, NLRP3 (Homo sapiens, UniProt Q96P20); assay: Human whole blood IL-1β release assay (LPS, nigericin, AlphaLisa); assay type: cell-based; design: Plate out 80 μl of whole blood containing 1 μg/ml of LPS; from tissue; host or cells: human whole blood from healthy donors, LPS-primed, nigericin-stimulated; details: 1 μg/ml LPS, 3 hours compound, 10 μM nigericin 1 hr, IL-1β in supernatant
T1 sequence (Q96P20 whole entry): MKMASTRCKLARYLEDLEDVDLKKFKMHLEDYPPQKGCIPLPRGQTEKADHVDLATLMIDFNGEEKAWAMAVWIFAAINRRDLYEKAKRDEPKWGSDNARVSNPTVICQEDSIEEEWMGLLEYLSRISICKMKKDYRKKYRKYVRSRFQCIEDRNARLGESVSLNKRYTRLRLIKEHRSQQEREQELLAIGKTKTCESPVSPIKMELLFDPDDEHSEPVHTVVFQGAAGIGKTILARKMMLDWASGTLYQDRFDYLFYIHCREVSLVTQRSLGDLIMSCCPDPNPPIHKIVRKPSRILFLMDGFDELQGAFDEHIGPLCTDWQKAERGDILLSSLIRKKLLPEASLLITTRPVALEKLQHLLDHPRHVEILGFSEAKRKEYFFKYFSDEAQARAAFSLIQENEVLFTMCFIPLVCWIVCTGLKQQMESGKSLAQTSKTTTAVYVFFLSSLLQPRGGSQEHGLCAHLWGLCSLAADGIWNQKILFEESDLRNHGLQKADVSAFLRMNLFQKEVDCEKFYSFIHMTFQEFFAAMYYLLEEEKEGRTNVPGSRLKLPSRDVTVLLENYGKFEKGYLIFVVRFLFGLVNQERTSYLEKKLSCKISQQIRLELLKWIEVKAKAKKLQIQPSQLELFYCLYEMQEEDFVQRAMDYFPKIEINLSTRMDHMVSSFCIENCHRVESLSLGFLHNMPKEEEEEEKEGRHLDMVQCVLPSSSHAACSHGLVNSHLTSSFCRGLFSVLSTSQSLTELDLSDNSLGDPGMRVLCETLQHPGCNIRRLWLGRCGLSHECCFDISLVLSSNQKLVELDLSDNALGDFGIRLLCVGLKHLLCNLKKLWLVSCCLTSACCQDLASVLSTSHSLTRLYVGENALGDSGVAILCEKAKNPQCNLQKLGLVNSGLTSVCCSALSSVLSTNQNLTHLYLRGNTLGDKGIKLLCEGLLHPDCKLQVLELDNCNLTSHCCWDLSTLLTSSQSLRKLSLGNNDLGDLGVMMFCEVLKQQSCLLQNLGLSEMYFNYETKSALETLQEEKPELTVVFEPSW
Protocol: For systemic delivery, the ability to inhibit NLRP3 when the compounds are present within the bloodstream is of great importance. For this reason, the NLRP3 inhibitory activity of a number of compounds in human whole blood was investigated in accordance with the following protocol.
Human whole blood in Li-heparin tubes was obtained from healthy donors from a volunteer donor panel. • 1. Plate out 80 μl of whole blood containing 1 μg/ml of LPS in 96-well, clear bottom cell culture plate (Corning #3585) • 2. Add 10 μl compound (8 points half-log dilution with 10 μM top dose) or vehicle (DMSO 0.1% FAC) to the appropriate wells • 3. Incubate for 3 hours at 37° C., 5% CO2 • 4. Add 10 μl nigericin (Sigma #N7143) (10 μM FAC) to all wells • 5. Incubate for 1 hr at 37° C., 5% CO2 • 6. At the end of the incubation period, spin plates at 300×g for 5 mins to pellet cells and remove 20 μl of supernatant and add to 96-well v-bottom plates for IL-1β analysis (note: these plates containing the supernatants can be stored at −80° C. to be analysed at a later date) • 7. IL-1β was measured according to the manufacturer protocol (Perkin Elmer-AlphaLisa IL-1 Kit AL220F-5000) • 8. IC50 data is fitted to a non-linear regression equation (log inhibitor vs response-variable slope 4-parameters)

NLRP3 [2] = biological target: T1, NLRP3; assay: THP-1 cells pyroptosis assay (LPS priming, nigericin, resazurin read-out); assay type: cell-based; design: Seed THP-1 cells (25,000 cells/well) containing 1.0 μg/ml LPS; host or cells: THP-1 cells, LPS-primed, nigericin-stimulated; details: 1 μg/ml LPS, 3 hours compound, 5 μM nigericin 1 hr
Protocol: THP-1 cells (ATCC #TIB-202) were grown in RPMI containing L-glutamine (Gibco #11835) supplemented with 1 mM sodium pyruvate (Sigma #S8636) and penicillin (100 units/ml)/streptomycin (0.1 mg/ml) (Sigma #P4333) in 10% Fetal Bovine Serum (FBS) (Sigma #F0804). The cells were routinely passaged and grown to confluency (˜10^6 cells/ml). On the day of the experiment, THP-1 cells were harvested and resuspended into RPMI medium (without FBS). The cells were then counted and viability (>90%) checked by Trypan blue (Sigma #T8154). Appropriate dilutions were made to give a concentration of 625,000 cells/ml. To this diluted cell solution was added LPS (Sigma #L4524) to give a 1 μg/ml Final Assay Concentration (FAC). 40 μl of the final preparation was aliquoted into each well of a 96-well plate. The plate thus prepared was used for compound screening.
The following method step-by-step assay was followed for compound screening. • 1. Seed THP-1 cells (25,000 cells/well) containing 1.0 μg/ml LPS in 40 μl of RPMI medium (without FBS) in 96-well, black walled, clear bottom cell culture plates coated with poly-D-lysine (VWR #734-0317) • 2. Add 5 μl compound (8 points half-log dilution, with 10 μM top dose) or vehicle (DMSO 0.1% FAC) to the appropriate wells • 3. Incubate for 3 hours at 37° C., 5% CO2 • 4. Add 5 μl nigericin (Sigma #N7143) (FAC 5 μM) to all wells • 5. Incubate for 1 hr at 37° C., 5% CO2 • 6. At the end of the incubation period, spin plates at 300×g for 3 mins and remove supernatant • 7. Then add […] of resazurin (Sigma #R7017) (FAC 100 μM resazurin in RPMI medium without FBS) and incubate plates for a further 1-2 hours at 37° C. and 5% CO2 • 8. Plates were read in an Envision reader at Ex 560 nm and Em 590 nm • 9. IC50 data is fitted to a non-linear regression equation (log inhibitor vs response-variable slope 4-parameters)

| SMILES | IC50 (NLRP3 [1]) [nM] | IC50 (NLRP3 [2]) [nM] |
| --- | --- | --- |
| CCN1CCC[C@@H](Nc2cc(C)c(-c3ccc4cc[nH]c4c3F)nn2)C1 [Example 10, N-[(3R)-1-ethyl-3-piperidyl]-6-(7-fluoro-1H-indol-6-yl)-5-methyl-pyridazin-3-amine] | 45.1 | 22.6 |
| CCN1CCC[C@@H](Nc2cc(C)c(-c3ccc4c(F)c[nH]c4c3)nn2)C1 [Example 2, N-[(3R)-1-Ethyl-3-piperidyl]-6-(3-fluoro-1H-indol-6-yl)-5-methyl-pyridazin-3-amine] | 9.5 | 2.7 |
| CCN1CCC[C@@H](Nc2cc(C(F)(F)F)c(-c3ccc4c(F)c[nH]c4c3)nn2)C1 [Example 11, N-[(3R)-1-Ethyl-3-piperidyl]-6-(3-fluoro-1H-indol-6-yl)-5-(trifluoromethyl)pyridazin-3-amine] | 44.1 | 5.1 |
| CCN1CCC[C@@H](Nc2cc(C)c(-c3cc4[nH]ccc4cc3F)nn2)C1 [Example 3, N-[(3R)-1-ethyl-3-piperidyl]-6-(5-fluoro-1H-indol-6-yl)-5-methyl-pyridazin-3-amine] | 48.6 | 9.2 |
| CCN1CCC[C@@H](Nc2cc(C)c(-c3ccc4c(C#N)c[nH]c4c3)nn2)C1 [Example 7, 6-[6-[[(3R)-1-Ethyl-3-piperidyl]amino]-4-methyl-pyridazin-3-yl]-1H-indole-3-carbonitrile] |  | 133 |
| CCN1CCC[C@@H](Nc2ccc(-c3cc4[nH]ccc4cc3C)nn2)C1 [Example 16, N-[(3R)-1-Ethyl-3-piperidyl]-6-(5-methyl-1H-indol-6-yl)pyridazin-3-amine] | 113 | 21 |
| CCN1CCC[C@@H](Nc2nnc(-c3ccc4cc[nH]c4c3)c3c2cnn3C)C1 [Example 15, N-[(3R)-1-Ethyl-3-piperidyl]-7-(1H-indol-6-yl)-1-methyl-pyrazolo[3,4-d]pyridazin-4-amine] | 52 | 27 |
| Cc1cc(N[C@@H]2CCCN(C)C2)nnc1-c1ccc2c(F)c[nH]c2c1 [Example 9, 6-(3-Fluoro-1H-indol-6-yl)-5-methyl-N-[(3R)-1-methyl-3-piperidyl]pyridazin-3-amine] | 26.5 | 4.9 |
| Cc1cc(N2CC[C@@H]3CCN(C)C[C@@H]32)nnc1-c1ccc2c(F)c[nH]c2c1 (single isomer, unassigned) [Example 18A] | 31 | 2 |
| CCN1CCC[C@@H](Nc2cc(C)c(-c3ccc4cc(C#N)[nH]c4c3)nn2)C1 [Example 8, 6-[6-[[(3R)-1-Ethyl-3-piperidyl]amino]-4-methyl-pyridazin-3-yl]-1H-indole-2-carbonitrile] |  | 123 |
| CCN1CCC[C@@H](Nc2cc(C)c(-c3ccc4c(C)c[nH]c4c3)nn2)C1 [Example 4, N-[(3R)-1-Ethyl-3-piperidyl]-5-methyl-6-(3-methyl-1H-indol-6-yl)pyridazin-3-amine] | 234 | 43.7 |
| Cc1cc(N[C@H]2C[C@@](C)(O)C2)nnc1-c1ccc2c(F)c[nH]c2c1 [Example 17, 3-[[6-(3-Fluoro-1H-indol-6-yl)-5-methyl-pyridazin-3-yl]amino]-1-methyl-cyclobutanol] |  | 493 |
| CCN1CCC[C@@H](Nc2nnc(-c3ccc4c(F)c[nH]c4c3)c(C)n2)C1 [Example 14, N-[(3R)-1-Ethyl-3-piperidyl]-6-(3-fluoro-1H-indol-6-yl)-5-methyl-1,2,4-triazin-3-amine] | 43.2 | 55.9 |
| CCN1CCC[C@@H](Nc2cc(C)c(-c3ccc4cc[nH]c4c3)nn2)C1 [Example 1, N-[(3R)-1-Ethyl-3-piperidyl]-6-(1H-indol-6-yl)-5-methyl-pyridazin-3-amine] | 17.1 | 5.1 |
| CCc1cc(N[C@@H]2CCCN(CC)C2)nnc1-c1ccc2c(F)c[nH]c2c1 [Example 12, 5-Ethyl-N-[(3R)-1-ethyl-3-piperidyl]-6-(3-fluoro-1H-indol-6-yl)pyridazin-3-amine] | 25.4 | 18.3 |
| CCN1CCC[C@@H](Nc2cc(C)c(-c3ccc4cc(C)[nH]c4c3)nn2)C1 [Example 6, N-[(3R)-1-Ethyl-3-piperidyl]-5-methyl-6-(2-methyl-1H-indol-6-yl)pyridazin-3-amine] | 56.2 | 12.3 |
| Cc1cc(N2CC[C@H]3CCN(C)C[C@H]32)nnc1-c1ccc2c(F)c[nH]c2c1 [Example 18B, (3aR,7aS)-1-[6-(3-fluoro-1H-indol-6-yl)-5-methyl-pyridazin-3-yl]-6-methyl-3,3a,4,5,7,7a-hexahydro-2H-pyrrolo[2,3-c]pyridine] | 179 | 37 |
| CCN1CCC[C@@H](Nc2nnc(-c3ccc4cc[nH]c4c3)c(C)n2)C1 [Example 13, N-[(3R)-1-Ethyl-3-piperidyl]-6-(1H-indol-6-yl)-5-methyl-1,2,4-triazin-3-amine] | 28.6 | 47.3 |
